Measurements reported in patent US20120142715A1, “POLYMORPH OF [4,6-BIS(DIMETHYLAMINO)-2-(4-BENZYL)PYRIMIDIN-5-YL]” (BOEHRINGER INGELHEIM INTERNATIONAL GMBH, priority 2009, published 2012).
Where a name gives a salt, the structure may show the parent alone.

Experiments:
[1] = DSC and TGA thermal events / weight loss at elevated temperature; type: physicochemical
Method: Weight loss at elevated temperature: Differences in thermal characteristics between the Type I and Type II ethylenediamine salts were also observed using differential scanning calorimetry (DSC), thermal gravimetric analysis (TGA) and dynamic vapor sorption (DVS) studies.
DSC and TGA thermograms of the Type II ethylenediamine salt (FIG. 4) indicate minimal loss of residual solvent up to 100° C. (about 0.16% which is controllable by more thorough drying). […] A first endothermic peak appears at about 192° C. with about 5.6% of total weight loss in TGA at corresponding temperature region (140° C. to 210° C.). This weight loss corresponds roughly to the theoretical weight loss (5.99 wt %) of ethylenediamine from the ethylenediamine salt of the compound of formula (I) (which contains 0.50 molar equivalents of ethylenediamine). […] The following endothermic peak is shown at 232° C. which is similar to the melting point of the free-acid form of the compound of formula (I).
There is about 3.8% weight loss at 20° C. to 70° C., which corresponds to the loss of water. A major endotherm at 118° C. to 134° C. corresponds to the melting of the ethylenediamine salt with volatilization, corresponding to the loss of ethanol and some ethylenediamine (about 4.4%). Further loss of ethylenediamine occurs at about 147° C. to 160° C. Above 165° C., melting and decomposition of the free-acid of the compound of formula (I) take place.
DSC was carried out using TA Instruments Q1000 Differential Scanning Calorimeter. Samples were placed in sealed aluminum pans for analysis with an empty aluminum pan as the reference. A heating rate of 10° C./min was employed over a temperature range from 20° C. to 300° C.
TGA was carried out using TA Instruments Q500 Thermogravimetric analyzer. Samples were placed into an platinum sample pan. A heating rate of 10° C./min was employed over a temperature range from 25° C. to 300° C.

[2] = XRPD analysis of crystallinity after heat-treatment; type: physicochemical; settings: for change in crystallinity (XRPD) as a result of heat treatment: heated at 80° C. under reduced pressure for 15 hours, vs sample kept at about 25° and atmospheric pressure
Method: Effect of heat-treatment on crystallinity: Applicants carried out an XRPD analysis of samples of the Type I and Type II ethylenediamine salts exposed to elevated temperature (80° C.), and the results are shown in FIG. 3. In FIG. 3, the top pattern A-1 was obtained on a sample of the Type II ethylenediamine salt maintained at atmospheric pressure and at about 25° prior to measuring the XRPD reflections. The pattern A-2 was obtained from a sample of the Type II ethylenediamine salt which was heated at 80° C. under reduced pressure for 15 hours prior to measuring the XRPD reflections.
The bottom pattern B-1 was obtained on a sample of the Type I ethylenediamine salt which was maintained at atmospheric pressure and at about 25° prior to measuring the XRPD reflections. The pattern B-2 was obtained from a sample of the Type I ethylenediamine salt which was heated at 80° C. under reduced pressure for 15 hours prior to measuring the XRPD reflections.
XRPD data were recorded with a Rigaku Miniflex II powder diffractometer (The Woodlands, Tex.). The radiation was CuKa (30 kV, 15 mA). Data were collected at 25° C. from 3 to 35 degrees 2θ at 0.02 degrees per step and 1.67 sec per step. Samples were prepared on Silicon (510) specimen holders as a thin layer of powdered material without solvent.

[3] = Dynamic vapor sorption (water sorption/desorption); type: physicochemical; settings: for hygroscopicity (in words): DVS; for moisture gain / water uptake: 85% relative humidity
Method: Water sorption/desorption profiles: Water sorption/desorption profiles of the Type II ethylenediamine salt are shown in FIG. 6. […] A similar water sorption/desorption study was carried out on the Type I ethylenediamine salt (FIG. 7). […] The sorption of water caused a form change in the Type I ethylenediamine salt which was observed using XRPD analysis.
Vapor sorption/desorption was carried out using Surface Measurement Systems DVS-HT. Samples were placed into a foil insert placed on a sample pan. […] The equilibrium point of each step was reached when 0.002% of weight change was reached.

[4] = cited from earlier work

thermal behavior in DSC and TGA thermograms [1]	weight loss (loss of water) ([1]; 20° C. to 70° C.)	Onset of event: Loss of water ([1]; DSC/TGA, 10° C./min)	Onset of event: Melting and loss of ethanol and ethylenediamine ([1]; DSC/TGA, 10° C./min)	Onset of event: Melting of the free-acid of compound of formula (I) ([1]; DSC/TGA, 10° C./min)	weight loss (loss of ethanol and some ethylenediamine) ([1]; major endotherm at 118° C. to 134° C.)	hygroscopicity (in words) ([3]; 25° C.)	water uptake ([3]; 70% relative humidity, 25° C.)	moisture gain / water uptake ([3]; 25° C.)	effect of water sorption on solid form (XRPD) ([3]; after sorption of water)	total weight loss in TGA (loss of ethylenediamine) ([1]; 140° C. to 210° C., first endothermic peak at about 192° C.)	Onset of event: Melting and loss of ethylenediame ([1]; DSC/TGA, 10° C./min)	loss of residual solvent (TGA) ([1]; up to 100° C.)	thermal stability compared with the other polymorph (XRPD study) ([2]; 80° C. heat treatment)	proneness to hydration compared with the other polymorph [3]	Compound	change in crystallinity (XRPD) as a result of heat treatment [2]	weight loss in thermogravimetric analysis (attributed to loss of ethanol) ([4]; from 125° C. to 150° C.)	weight loss in thermogravimetric analysis ([4]; from about 30° C. to about 75° C.)
unstable thermal behavior	about 3.8%	30 °C	120 °C	210 °C	about 4.4%	significant moisture sorption	~6%	~7%	form change	–	–	–	–	–	CN(C)c1nc(Cc2ccc(NC(=O)c3ccc(C(F)(F)F)cc3)cc2)nc(N(C)C)c1CC(=O)O [Type I ethylenediamine salt, ethylenediamine salt of [4,6-bis(dimethylamino)-2-(4-{[4-(trifluoromethyl)benzoyl]amino}benzyl)pyrimidin-5-yl]acetic acid]	significant change in the crystallinity	larger weight loss	slight weight loss
–	–	–	–	225 °C	–	non-hygroscopic	–	about 0.08%	–	about 5.6%	160 °C	about 0.16%	more thermally stable	less prone to hydration	CN(C)c1nc(Cc2ccc(NC(=O)c3ccc(C(F)(F)F)cc3)cc2)nc(N(C)C)c1CC(=O)O [Type II ethylenediamine salt, ethylenediamine salt of [4,6-bis(dimethylamino)-2-(4-{[4-(trifluoromethyl)benzoyl]amino}benzyl)pyrimidin-5-yl]acetic acid]	no noticeable change in the crystallinity	–	–
